Source: US7173004B2, “Macrocyclic isoquinoline peptide inhibitors of hepatitis C virus” (Bristol-Myers Squibb Company, priority 2003, dated 2007)
“Also recorded” adds a separate entry of the source.

How the values were obtained:
[1] = tested on: HCV replicon; test: Two-drug combination matrix studies in HCV replicon system, Universal Response Surface Approach (URSA); type: cell-based; settings: for EC50: Hepatitis C virus
Description: In addition to the combination index approach, above, the Universal Response Surface Approach (URSA) was also used to assess the antiviral effects of combinations of NS5A or NS5B inhibitors with the NS3 protease inhibitor. The experiments were conducted in a matrixed format with 8 concentrations of NS3 protease inhibitor crossed against 10 concentrations of NS5A or NS5B inhibitor on each of three plates. 200× stock solutions of each inhibitor concentration were prepared by 3-fold dilution in DMSO. Effects on replication were assessed in the HCV replicon system as described above. The data was analyzed using the URSA as described in Greco, Park and Rustum (Greco, Park, Sook, and Rustum (1990) Application of a New Approach for the Quantitation of Drug Synergism to the Combination of cis-Diamminedichloroplatinum and 1-β-D-Arabinofuranosylcytosine, Cancer Research, 50, 5318–5327). The interaction of the two drugs was assessed by using non-linear regression with a bisection algorithm. Seven parameters were estimated. These include the minimal response or response in the absence of drug, the maximal response or response in the presence of infinite drug, EC50's for the two drugs, slope parameters for the two drugs, and the drug interaction parameter α which provides the assessment of synergism, antagonism or additivity. Additivity is implied when α is equal to zero, synergy if the interaction parameter is larger than zero, and antagonism when the interaction parameter is less than zero. The confidence interval for the interaction parameter is also presented. This interval is used to test for departure from additivity by comparing the bounds to zero—a lower bound of the interval greater than zero indicates synergy, an upper bound of less than zero indicates antagonism, and a value of zero contained in the interval indicates additivity.

[2] = tested on: HCV replicon; test: Two-drug combination studies in HCV replicon system, combination index (Chou); type: cell-based; settings: for EC50: monotherapy, NS3 protease inhibitor = compound 28, read-out: NS3 protease inhibitor EC50
Excerpt: Since clinical drug resistance often develops in viral infections following single-agent therapies, there is a need to assess the additive, antagonistic, or synergistic properties of combination therapies. We used the HCV replicon system, as described above, to assess the potential use of our NS3 protease macrocyclic inhibitor in combination therapies with Intron A and inhibitors targeting other HCV proteins. Three HCV antivirals, Intron A (recombinant Interferon alfa-2b) an HCV NS5A inhibitor having the following structure:
In addition, compound 28 was also tested in 3-drug combinations with the NS5A and NS5B inhibitors.
For the experiments shown in Tables 8 and 9, inhibitors were tested at eleven concentrations each. 200× stock solutions of each inhibitor concentration were prepared by 2- or 3-fold dilution in DMSO prior to addition to cells/media. The drugs were tested as monotherapies and in combination with the NS3 protease inhibitor at various concentration ratios. Cells were exposed to compounds for 4 days and the amount of HCV inhibition was then determined using the FRET assay. The potential cytotoxicities of these combined agents were also analyzed in parallel by Alamar Blue staining. […] The degree of antagonism, additivity, or synergy was determined over a range of drug concentrations, and combination response curves were fit to assess the antiviral effects of the drug treatment combinations. The concentration ratios were analyzed using the method of Chou (Chou, Ting-Chao, and Rideout (Editors), (1991) Synergism and Antagonism in Chemotherapy, P. 61–101, Academic Press, New York). Tables 8 and 9 report the estimated EC50 values for the compounds tested, as well as the combination indices (CI). All estimates were computed using SAS Proc NLIN, and a two-parameter logistic. All combination indices were tested for departure from additivity using isobologram methods. Asymptotic confidence intervals were also calculated for each of the combination indices. These intervals are used to test for departure from additivity by comparing the bounds to one—a lower bound of the interval greater than 1 indicates antagonism, an upper bound of less than 1 indicates synergism, and a value of 1 contained in the interval indicates additivity.

[3] = compound 28 combined with NS5A inhibitor, matrix study (Table 10)
[4] = compound 28 combined with NS5B inhibitor, Expt 1
[5] = compound 28 combined with NS5B inhibitor, Expt 2
[6] = 75, 90 and 95% effective doses, two experiments

`COc1ccc2c(OC3CC4C(=O)NC5(C(=O)NS(=O)(=O)C6CC6)CC5C=CCOCCCC(NC(=O)OC(C)(C)C)C(=O)N4C3)nccc2c1` (stereo not shown) [Compound 28, [4-Cyclopropanesulfonylaminocarbonyl-18-(6-methoxy-isoquinolin-1-yloxy)-2,15-dioxo-10-oxa-3,16-diaza-tricyclo[14.3.0.0^4,6]nonadec-7-en-14-yl]-carbamic acid tert-butyl ester] was tested, and the EC50 ([1]; matrix study with NS5A inhibitor, URSA estimate (Table 10)) was 0.009 µM, the EC50 ([1]; matrix study with NS5B inhibitor, Expt 1 (Table 11)) was 0.015 µM and the EC50 ([1]; matrix study with NS5B inhibitor, Expt 2 (Table 11)) was 0.02 µM. For the same compound, the Interaction parameter alpha [1, 3] was 0.63, the “Overall Result” value [1, 3] was “Additivity” and the “Overall Result” value ([1]; compound 28 combined with NS5A inhibitor, matrix study (Table 10), listed as compound 28) was “additivity”. For the same compound, the Interaction parameter alpha [1, 4] was 0.47, the “Overall Result” value [1, 4] was “Additivity” and the Interaction parameter alpha [1, 5] was 0.31. The “Overall Result” value [1, 5] was “Additivity”, the “combination effect with the HCV NS5B inhibitor, matrix format” value ([1]; two experiments) was “overall additivity” and the “combination effect with Intron A (Interferon alfa-2b)” value [2, 6] was “either synergistic or additivity effects; also recorded: no drug antagonism”. The “combination effect with the HCV NS5A inhibitor” value [2, 6] was “Synergy or additivity; also recorded: no drug antagonism”, the EC50 ([2]; Hepatitis C virus, Table 9 (combinations with an NS5A inhibitor)) was 0.009 µM and the EC50 ([2]; Table 9 (combinations with an NS5A inhibitor)) was 0.011 µM. For the same compound, the EC50 ([2]; Table 8 (combinations with Interferon alfa-2b)) was 0.01 µM.
